Results from patent publication US12319672B2, “Alpha-D-galactopyranoside derivatives” (Idorsia Pharmaceuticals Ltd, priority 2019, dated 2025).

What was measured:
human Gal-1 (hGal-1) = assay: Competitive binding assay: binding of biotinylated hGal-1 to microplate-adsorbed asialofetuin (ASF); conditions: Activities on hGal-1; mean values of several measurements
In short: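 For hGal-1, a variant with all six cysteines replaced by serines is preferred. Either galectin, biotinylated at 300-1000 ng/mL, competes with compound for microplate-bound ASF over 3 h at 4° C; peroxidase/ABTS detection gives IC50, averaged.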

human Gal-3 (hGal-3) = human Gal-3 (hGal-3) (Homo sapiens (Human), UniProt P17931); assay: Competitive binding assay: binding of biotinylated hGal-3 to microplate-adsorbed asialofetuin (ASF); conditions: Activity on hGal-3; mean values of several measurements
In short: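 Spectrophotometric readout (streptavidin-peroxidase, ABTS) of biotinylated galectin retained on ASF-coated wells. Biotinylated hGal-1 or hGal-3, 300-1000 ng/mL, co-incubated with test compound 3 h at 4° C, then washed. Mean IC50 from repeat runs.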

human Gal-1 (hGal-1), sequence (P09382 2-135 limits assumed): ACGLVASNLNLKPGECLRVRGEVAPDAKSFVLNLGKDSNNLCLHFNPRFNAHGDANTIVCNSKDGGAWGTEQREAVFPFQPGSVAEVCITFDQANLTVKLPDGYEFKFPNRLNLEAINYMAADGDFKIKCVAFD
human Gal-3 (hGal-3), sequence (P17931 whole entry): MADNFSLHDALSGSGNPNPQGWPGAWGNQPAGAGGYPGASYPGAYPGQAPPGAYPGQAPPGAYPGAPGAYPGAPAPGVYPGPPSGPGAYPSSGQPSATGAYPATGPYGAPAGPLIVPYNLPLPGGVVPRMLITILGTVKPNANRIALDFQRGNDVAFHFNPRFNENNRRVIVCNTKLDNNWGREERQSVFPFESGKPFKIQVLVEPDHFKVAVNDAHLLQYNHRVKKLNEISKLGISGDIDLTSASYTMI

Structure (SMILES) | IC50 (human Gal-1 (hGal-1)) [nM] | IC50 (human Gal-3 (hGal-3)) [nM]
CO[C@@H]1[C@@H](n2cc(-c3cc(F)c(F)c(F)c3)nn2)[C@@H](O)[C@@H](CO)O[C@@H]1Cn1cc(C2CCN(S(=O)(=O)c3ccc(C)cc3)CC2)nn1 [Example 4.23, (2R,3R,4S,5R,6R)-2-(hydroxymethyl)-5-methoxy-6-((4-(1-tosylpiperidin-4-yl)-1H-1,2,3-triazol-1-yl)methyl)-4-(4-(3,4,5-trifluorophenyl)-1H-1,2,3-triazol-1-yl)tetrahydro-2H-pyran-3-ol] | 1230 | 38
CO[C@@H]1[C@@H](n2cc(-c3cc(F)c(F)c(F)c3)nn2)[C@@H](O)[C@@H](CO)O[C@@H]1Cn1cc(C2CCN(C(=O)NC(C)(C)C)CC2)nn1 [Example 4.27, N-(tert-butyl)-4-(1-(((2R,3R,4S,5R,6R)-5-hydroxy-6-(hydroxymethyl)-3-methoxy-4-(4-(3,4,5-trifluorophenyl)-1H-1,2,3-triazol-1-yl)tetrahydro-2H-pyran-2-yl)methyl)-1H-1,2,3-triazol-4-yl)piperidine-1-carboxamide] | 380 | 34
CO[C@@H]1[C@@H](n2cc(-c3cc(F)c(F)c(F)c3)nn2)[C@@H](O)[C@@H](CO)O[C@@H]1Cn1cc(C2CCN(C(=O)NC3CC3)CC2)nn1 [Example 4.32, N-cyclopropyl-4-(1-(((2R,3R,4S,5R,6R)-5-hydroxy-6-(hydroxymethyl)-3-methoxy-4-(4-(3,4,5-trifluorophenyl)-1H-1,2,3-triazol-1-yl)tetrahydro-2H-pyran-2-yl)methyl)-1H-1,2,3-triazol-4-yl)piperidine-1-carboxamide] | 884 | 65
CO[C@@H]1[C@@H](n2cc(-c3ccc(Cl)c(F)c3)nn2)[C@@H](O)[C@@H](CO)O[C@@H]1Cc1cn(C2CCN(C(=O)OCc3ccccc3)CC2)nn1 [Example 4.34, benzyl 4-(4-(((2R,3R,4S,5R,6R)-4-(4-(4-chloro-3-fluorophenyl)-1H-1,2,3-triazol-1-yl)-5-hydroxy-6-(hydroxymethyl)-3-methoxytetrahydro-2H-pyran-2-yl)methyl)-1H-1,2,3-triazol-1-yl)piperidine-1-carboxylate] | 430 | 25
CO[C@@H]1[C@@H](n2cc(-c3cccc(F)c3)nn2)[C@@H](O)[C@@H](CO)O[C@@H]1Cc1cn(C2CCN(C(=O)OCc3ccccc3)CC2)nn1 [Example 4.35, benzyl 4-(4-(((2R,3R,4S,5R,6R)-4-(4-(3-fluorophenyl)-1H-1,2,3-triazol-1-yl)-5-hydroxy-6-(hydroxymethyl)-3-methoxytetrahydro-2H-pyran-2-yl)methyl)-1H-1,2,3-triazol-1-yl)piperidine-1-carboxylate] | 150 | 40
CO[C@@H]1[C@@H](n2cc(-c3ccc(Br)c(F)c3)nn2)[C@@H](O)[C@@H](CO)O[C@@H]1Cc1cn(C2CCN(C(=O)OCc3ccccc3)CC2)nn1 [Example 4.36, benzyl 4-(4-(((2R,3R,4S,5R,6R)-4-(4-(4-bromo-3-fluorophenyl)-1H-1,2,3-triazol-1-yl)-5-hydroxy-6-(hydroxymethyl)-3-methoxytetrahydro-2H-pyran-2-yl)methyl)-1H-1,2,3-triazol-1-yl)piperidine-1-carboxylate] | 570 | 19
CO[C@@H]1[C@@H](n2cc(-c3cc(F)cc(F)c3)nn2)[C@@H](O)[C@@H](CO)O[C@@H]1Cc1cn(C2CCN(C(=O)OCc3ccccc3)CC2)nn1 [Example 4.37, benzyl 4-(4-(((2R,3R,4S,5R,6R)-4-(4-(3,5-difluorophenyl)-1H-1,2,3-triazol-1-yl)-5-hydroxy-6-(hydroxymethyl)-3-methoxytetrahydro-2H-pyran-2-yl)methyl)-1H-1,2,3-triazol-1-yl)piperidine-1-carboxylate] | 170 | 15
CO[C@@H]1[C@@H](n2cc(-c3cc(F)c(F)c(F)c3)nn2)[C@@H](O)[C@@H](CO)O[C@@H]1Cn1cc(C(C)(C)C)nn1 [Example 4.38, (2R,3R,4S,5R,6R)-6-((4-(tert-butyl)-1H-1,2,3-triazol-1-yl)methyl)-2-(hydroxymethyl)-5-methoxy-4-(4-(3,4,5-trifluorophenyl)-1H-1,2,3-triazol-1-yl)tetrahydro-2H-pyran-3-ol] | 1810 | 93
CCOC(=O)N1CCC(c2cn(C[C@H]3O[C@H](CO)[C@H](O)[C@H](n4cc(-c5cc(F)c(F)c(F)c5)nn4)[C@H]3OC)nn2)CC1 [Example 4.39, ethyl 4-(1-(((2R,3R,4S,5R,6R)-5-hydroxy-6-(hydroxymethyl)-3-methoxy-4-(4-(3,4,5-trifluorophenyl)-1H-1,2,3-triazol-1-yl)tetrahydro-2H-pyran-2-yl)methyl)-1H-1,2,3-triazol-4-yl)piperidine-1-carboxylate] | 520 | 44

More lines, now with the values ahead:

IC50 (human Gal-1 (hGal-1)) [nM] | IC50 (human Gal-3 (hGal-3)) [nM] | Structure (SMILES)
770 | 45 | CO[C@@H]1[C@@H](n2cc(-c3cc(F)c(F)c(F)c3)nn2)[C@@H](O)[C@@H](CO)O[C@@H]1Cn1cc(C2CCN(S(=O)(=O)C(C)C)CC2)nn1 [Example 4.22, (2R,3R,4S,5R,6R)-2-(hydroxymethyl)-6-((4-(1-(isopropylsulfonyl)piperidin-4-yl)-1H-1,2,3-triazol-1-yl)methyl)-5-methoxy-4-(4-(3,4,5-trifluorophenyl)-1H-1,2,3-triazol-1-yl)tetrahydro-2H-pyran-3-ol]
310 | 54 | CCN=S1(=O)CCC(n2cc(C[C@H]3O[C@H](CO)[C@H](O)[C@H](n4cc(-c5cc(F)c(F)c(F)c5)nn4)[C@H]3OC)nn2)CC1 (stereo partly drawn) [Example 4.24, 1-(ethylimino)-4-(4-(((2R,3R,4S,5R,6R)-5-hydroxy-6-(hydroxymethyl)-3-methoxy-4-(4-(3,4,5-trifluorophenyl)-1H-1,2,3-triazol-1-yl)tetrahydro-2H-pyran-2-yl)methyl)-1H-1,2,3-triazol-1-yl)hexahydro-1l6-thiopyran 1-oxide]
1570 | 120 | CN=S(=O)(C(C)C)N1CCC(c2cn(C[C@H]3O[C@H](CO)[C@H](O)[C@H](n4cc(-c5cc(F)c(F)c(F)c5)nn4)[C@H]3OC)nn2)CC1 (stereo partly drawn) [Example 4.25, (2R,3R,4S,5R,6R)-2-(hydroxymethyl)-5-methoxy-6-((4-(1-(N-methylpropan-2-ylsulfonimidoyl)piperidin-4-yl)-1H-1,2,3-triazol-1-yl)methyl)-4-(4-(3,4,5-trifluorophenyl)-1H-1,2,3-triazol-1-yl)tetrahydro-2H-pyran-3-ol]
1240 | 61 | CO[C@@H]1[C@@H](n2cc(-c3cc(F)c(F)c(F)c3)nn2)[C@@H](O)[C@@H](CO)O[C@@H]1Cn1cc(C2CCN(S(=O)(=O)N(C)C)CC2)nn1 [Example 4.26, 4-(1-(((2R,3R,4S,5R,6R)-5-hydroxy-6-(hydroxymethyl)-3-methoxy-4-(4-(3,4,5-trifluorophenyl)-1H-1,2,3-triazol-1-yl)tetrahydro-2H-pyran-2-yl)methyl)-1H-1,2,3-triazol-4-yl)-N,N-dimethylpiperidine-1-sulfonamide]
120 | 13 | CO[C@@H]1[C@@H](n2cc(-c3cc(F)c(F)c(F)c3)nn2)[C@@H](O)[C@@H](CO)O[C@@H]1Cc1cn(C2CCS(=O)(=NCc3ccccc3)CC2)nn1 (stereo partly drawn) [Example 4.28, 1-(benzylimino)-4-(4-(((2R,3R,4S,5R,6R)-5-hydroxy-6-(hydroxymethyl)-3-methoxy-4-(4-(3,4,5-trifluorophenyl)-1H-1,2,3-triazol-1-yl)tetrahydro-2H-pyran-2-yl)methyl)-1H-1,2,3-triazol-1-yl)hexahydro-1l6-thiopyran 1-oxide]
2740 | 310 | CO[C@@H]1[C@@H](n2cc(-c3cc(F)c(F)c(F)c3)nn2)[C@@H](O)[C@@H](CO)O[C@@H]1Cn1cc(C2CCCCC2)nn1 [Example 4.29, (2R,3R,4S,5R,6R)-6-((4-cyclohexyl-1H-1,2,3-triazol-1-yl)methyl)-2-(hydroxymethyl)-5-methoxy-4-(4-(3,4,5-trifluorophenyl)-1H-1,2,3-triazol-1-yl)tetrahydro-2H-pyran-3-ol]
2920 | 85 | CO[C@@H]1[C@@H](n2cc(-c3cc(F)c(F)c(F)c3)nn2)[C@@H](O)[C@@H](CO)O[C@@H]1Cc1cn(C2CCCCC2)nn1 [Example 4.30, (2R,3R,4S,5R,6R)-6-((1-cyclohexyl-1H-1,2,3-triazol-4-yl)methyl)-2-(hydroxymethyl)-5-methoxy-4-(4-(3,4,5-trifluorophenyl)-1H-1,2,3-triazol-1-yl)tetrahydro-2H-pyran-3-ol]
320 | 27 | CO[C@@H]1[C@@H](n2cc(-c3cc(F)c(F)c(F)c3)nn2)[C@@H](O)[C@@H](CO)O[C@@H]1Cc1cn(C2CCS(=O)(=NC(C)C)CC2)nn1 (stereo partly drawn) [Example 4.31, 4-(4-(((2R,3R,4S,5R,6R)-5-hydroxy-6-(hydroxymethyl)-3-methoxy-4-(4-(3,4,5-trifluorophenyl)-1H-1,2,3-triazol-1-yl)tetrahydro-2H-pyran-2-yl)methyl)-1H-1,2,3-triazol-1-yl)-1-(isopropylimino)hexahydro-1l6-thiopyran 1-oxide]
220 | 71 | CO[C@@H]1[C@@H](n2cc(-c3cc(F)c(F)c(F)c3)nn2)[C@@H](O)[C@@H](CO)O[C@@H]1Cc1cn(C2CCS(=O)(=NC3CCC(F)(F)CC3)CC2)nn1 (stereo partly drawn) [Example 4.33, 1-((4,4-difluorocyclohexyl)imino)-4-(4-(((2R,3R,4S,5R,6R)-5-hydroxy-6-(hydroxymethyl)-3-methoxy-4-(4-(3,4,5-trifluorophenyl)-1H-1,2,3-triazol-1-yl)tetrahydro-2H-pyran-2-yl)methyl)-1H-1,2,3-triazol-1-yl)hexahydro-1l6-thiopyran 1-oxide]
